B1: IL-10: rIL-10 (500 U/ml, R&D Systems) (protein, UniProt P22301 19-178, looked up)
Interleukin-10: SPGQGTQSENSCTHFPGNLPNMLRDLRDAFSRVKTFFQMKDQLDNLLLKESLLEDFKGYLGCQALSEMIQFYLEEVMPQAENQDPDIKAHVNSLGENLKTLRLRLRRCHRFLPCENKSKAVEQVKNAFNKLQEKGIYKAMSEFDIFINYIEAYMTMKIRN

Tests used:
[1] = test system: BALB/c mice; assay: CLP polymicrobial sepsis model in mice (Example 3); format: in vivo, mouse; details: 24 hours after CLP; control peptide, dose not given in table (100 μg in source)
Description: Male Balb/C mice (20 to 23 g) were randomly grouped and treated with normal saline (n=14) or the control peptide (n=14, 100 μg) or with P5 (100 μg) in a single infection at HO (n=18), H+4 (n=18) or H+24 (n=18). The last group of mice (n=18) was treated with repeated injections of P5 (100 μg) at H+4, H+8 and H+24.
Mice (n=15 per group) were treated with a single injection of normal saline or 10 μg, 20 μg, 50 μg, 100 μg or 200 μg of P5 at HO after the CLP and monitored for survival.
Mice (5 per group) were killed under anaesthesia at 24 hours after CLP. Bacterial counts in peritoneal lavage fluid and blood were determined and results are expressed as CFU per mL of blood and CFU per mouse for the peritoneal lavage.
Male Balb/C mice (7 to 9 weeks, 20 to 23 g) were anaesthetized by i.p. administration of ketamine and xylazine in 0.2 mL sterile pyrogen-free saline. The caecum was exposed through a 1.0 cm abdominal midline incision and subjected to a ligation of the distal half followed by two punctures with a G21 needle. A small amount of stool was expelled from the punctures to ensure patency. The caecum was replaced into the peritoneal cavity and the abdominal incision closed in two layers. After surgery all mice were injected s.c. with 0.5 ml of physiologic saline solution for fluid resuscitation and s.c. every 12 h with 1.25 mg (i.e. 50 μg/g) of imipenem. The animals were randomly grouped and treated with normal saline (n=14), the control peptide (n=14, 100 μg) or P5 (100 μg) in a single injection at HO (n=18), H+4 (n=18) or H+24 (n=18). The last group of mice (n=18) was treated with repeated injections of P5 (100 μg) at H+4, H+8 and H+24. All treatments were diluted into 500 μl of normal saline and administered i.p. The Inventors next sought to determine the effect of various doses of P5. For this purpose, mice (n=15 per group) were treated with a single injection of normal saline or 10 μg, 20 μg, 50 μg 100 μg or 200 μg of P5 at HO after the CLP and monitored for survival. Five additional animals per group were killed under anaesthesia 24 hours after CLP for the determination of bacterial count and cytokines levels. Peritoneal lavage fluid was obtained using 2 mL RPMI 1640 (Life Technologies) and blood was collected by cardiac puncture. Concentrations of TNF-α and IL-1β in the serum were determined by ELISA (BD Biosciences). For the assessment of bacterial counts, blood and peritoneal lavage fluid were plated in serial log dilutions on tryptic soy supplemented with 5% sheep blood agar plates. After plating, tryptic soy agar plates were incubated at 37° C. aerobically for 24 hours, and anaerobically for 48 hours. Results are expressed as CFU per mL of blood and CFU per mouse for the peritoneal lavage.

[2] = test system: human monocytes; assay: in vitro stimulation of monocytes: TNF-α, IL-1β and sTREM-1 release; format: cell-based; details: P5 or control peptide 10 to 100 ng/mL, rIL-10 500 U/mL; for TNF-α and IL-1β production (release of inflammatory cytokines) in monocyte supernatant: LPS 1 μg/mL or LPS + anti-TREM-1 mAb; for release of sTREM-1 from monocytes cultured with LPS: LPS 1 μg/mL
Description: For cell activation, primary monocytes were cultured in 24-well flat-bottom tissue culture plates in the presence of LPS (1 μg/mL). In some experiments this stimulus was provided in combination with P5 (10 to 100 ng/mL), control peptide (10 to 100 ng/mL) or rIL-10 (500 U/mL). To activate monocytes through TREM-1, an agonist anti-TREM-1 mAb (10 μg/mL) was added as indicated. Cell-free supernatants were analysed for production of TNF-α, IL-1β. and sTREM-1 by ELISA or immunodot. All experiments were performed in triplicate and data are expressed as means (SEM). • a: Media • b: P5 10 ng/mL • c: Anti-TREM-1 • d: LPS • e: LPS+Anti-TREM-1 • f: LPS+P5 10 ng/mL • g: LPS+P5 50 ng/mL • h: LPS+P5 100 ng/mL • i: LPS+IL10
Ten mL of peripheral blood samples were collected on EDTA-K from 5 healthy volunteer donors originating from laboratory staff. After dilution in RPMI (Life Technologies, Grand Island, N.Y.) v/v, blood was centrifuged for 30 min at room temperature over a Ficoll gradient (Amersham Pharmacia, Uppsala, Sweden) to isolate PBMC. The cells recovered above the gradient were washed and counted. In order to deplete the suspensions of lymphocytes, cells were then plated in 24-well flat-bottom tissue culture plates (Corning, Corning, N.Y.) at a concentration of 5×10^6/mL and allowed to adhere during 2 hours at 37° C. The resulting lymphocyte suspension was discarded and the adhering monocytic cells were maintained in a 5% CO2 incubator at 37° C. in complete medium (RPMI 1640, 0.1 mM sodium pyruvate, […], 50 μg/mL Streptomycin; Life Technologies) supplemented with 10% FCS (Invitrogen, Cergy, France).
For activation, monocytes were cultured in the presence of E. coli LPS (0111:B4, 1 μg/mL, Sigma-Aldrich, La Verpillière, France). Cell viability was assessed by trypan blue exclusion and by measuring lactate dehydrogenase release. In some experiments, this stimulus was given in combination with TNF-α (5 to 100 ng/mL, R&D Systems, Lille, France), IL-1β (5 to 100 ng/mL, R&D Systems), rIFN-γ (up to 100 U/mL, R&D Systems), rIL-10 (500 U/ml, R&D Systems) or up to 100 ng/mL of P5 or control peptide.
In order to activate monocytes through TREM-1, an anti-TREM-1 agonist monoclonal antibody (R&D Systems) was added as follows: flat-bottom plates were precoated with 10 μg/mL anti-TREM-1 per well. After thorough washing in phosphate buffered saline (PBS), the monocyte suspensions were added at a similar concentration as above. Some experiments were performed in the presence of protease inhibitors (PMSF and Protease Cocktail Inhibitor; Invitrogen). Cell-free supernatants were assayed for the production of TNF-α and IL-1β by ELISA according to the recommendations of the manufacturer (BD Biosciences, San Diego, USA). To address the effect of P5 on NF-κB activity in monocytes, an ELISA-based assay was performed (BD Mercury™ Transfactor Kit, BD Biosciences). Monocytes were cultured for 24 hours in the presence of E. coli LPS (O111:B4, 1 μg/mL), and/or an agonist anti-TREM-1 monoclonal antibody (10 μg/mL), and/or P5 (100 ng/mL). Whole-cell extracts were then prepared and levels of NF-κB p50 and p65 were determined according to the recommendations of the manufacturer. All experiments were performed in triplicate and data are expressed as means (SEM). Identification and Quantitation of sTREM-1 Release
Primary monocytes suspensions were cultured as described above. The cells were treated with E. coli LPS (0111:B4, 1 μg/mL) for 24 hours at 37° C. Cell-conditioned medium was submitted to Western-blotting using an anti-TREM-1 monoclonal antibody (R&D Systems) in order to confirm the presence of 27 kDa material recognized by anti-TREM-1. Soluble TREM-1 levels were measured by assessing the optical intensity of bands on immunodots by means of a reflectance scanner and the Quantity One Quantitation Software (Bio-Rad, Cergy, France) as reported elsewhere (18). […]

[3] = test system: BALB/c mice; assay: LPS-induced endotoxaemia, survival of mice (Example 1); format: in vivo, mouse
Description: BALB/c mice (10 per group) were injected intraperitoneally with 200 μg LPS. The TREM-1 peptides P1, P2, P3, or P5 (200 μl of a 300 μM solution per mouse) were injected intraperitoneally 1 hour before LPS. Viability of mice was monitored twice a day for 7 days. Statistical analysis was performed by Logrank test. Data from control mice represent cumulative survival curves from two independent experiments performed under identical conditions.
BALB/c mice (10 per group) were injected intraperitoneally with 200 μg LPS. TREM-1 peptide P1, 200 μl of a 300 μM solution per mouse was injected intraperitoneally 1 hour before or 4 hours after LPS. Viability of mice was monitored twice a day for 7 days. Statistical analysis was performed with the Logrank test. Data from control mice represent cumulative survival curves from two independent experiments performed under identical conditions
BALB/c mice (10 per group) were injected intraperitoneally with 200 μg LPS. P1 peptide, 200 μl of a 150, 300 and 600 μM solution per mouse (dots) or P3, 200 μl of a 600 μM solution per mouse (filled squares) were injected intraperitoneally 4 hours after LPS. Viability of mice was monitored twice a day for 7 days. Statistical analysis was performed with the Logrank test
In the experiments of this example, the peptides were administered in a volume of 200 μl of the solution molarity indicated. To assess the ability of TREM1-peptides to protect mice from LPS-induced endotoxaemia, the Inventors administered peptides P1, P2, P3 and P5 (300 μM) 1 hour before a lethal dose of lipopolysaccharide (LPS) (FIG. 2). Lethality was monitored over time and compared with animals that had received control injections of vehicle alone. P5 injection confers maximal protection, with 90% of the animals still alive 7 days after LPS injection, as compared with 10% of control mice (p<0.001). 60% of the P1-treated mice and 50% of the P2 treated mice survived endotoxaemia as compared with 10% of control mice (p<0.01 and p<0.05 respectively).
In order to investigate whether TREM-1 peptide treatment could be delayed until after the administration of LPS, the Inventors injected the peptides at 4 hours after LPS injection. […] 80% of the mice injected with P1 4 hours after LPS survived endotoxaemia compared to 60% of mice treated 1 h before LPS and 10% of mice treated with vehicle alone (p<0.001 and p<0.01 respectively). Thus, P1 is effective even when injected after the outbreak of endotoxaemia. […] P1 administration conferred maximal protection (80%) when administered at 600 μM (p<0.01) and the level of protection dropped to 50% at 300 μM (p<0.05) and further down to 30% at 150 μM as compared to 20% of control mice, indicating a dose dependent effect of P1 (FIG. 4). The Inventors then investigated whether P1 protects against septic shock in the “CLP” model (Cecal Ligation and Puncture is a widely used experimental model of sepsis). Mice treated with two doses of P1 at 5 and 24 hours after CLP were protected from death as compared to control treated mice (p=0.0791) although the difference was not statistically significant. 40% of the mice injected with P1 at 5 days after CLP survived compared to 5% of mice treated with P3 peptide.

[4] = test system: C57BL/6 mice; assay: cecal ligation and puncture (CLP), survival of mice (Example 1); format: in vivo, mouse; details: 200 μl of 600 μM i.p. 5 and 24 hours after CLP; 5 days after CLP; 15 per group
Description: CLP was induced in C57BL/6 mice (15 per group) as described in Materials and Methods. P1 peptide (empty dots) or P3 peptide (filled squares) (200 μl of a 600 μM solution per mouse) were injected intraperitoneally 5 and 24 hours after CLP induction. Viability of mice was monitored twice a day for 10 days. Statistical analysis was performed with the Logrank test.
In order to investigate whether TREM-1 peptide treatment could be delayed until after the administration of LPS, the Inventors injected the peptides at 4 hours after LPS injection. […] 80% of the mice injected with P1 4 hours after LPS survived endotoxaemia compared to 60% of mice treated 1 h before LPS and 10% of mice treated with vehicle alone (p<0.001 and p<0.01 respectively). Thus, P1 is effective even when injected after the outbreak of endotoxaemia. […] P1 administration conferred maximal protection (80%) when administered at 600 μM (p<0.01) and the level of protection dropped to 50% at 300 μM (p<0.05) and further down to 30% at 150 μM as compared to 20% of control mice, indicating a dose dependent effect of P1 (FIG. 4). The Inventors then investigated whether P1 protects against septic shock in the “CLP” model (Cecal Ligation and Puncture is a widely used experimental model of sepsis). […]

[5] = test system: TREM-1/TREM-1 ligand interaction; assay: competition of soluble mouse TREM-1/IgG1 binding to TREM-1 ligand positive peritoneal exudate cells (flow cytometry); details: peptides 100 and 500 μM, pre-incubated 45 minutes on ice; 2 μg/ml mouseTREM-1/hIgG1
Description: Cytofluorimetric analysis of peritoneal exudate cells with 2 μg/ml of mouseTREM-1/hIgG1 in the presence of a 500 μM solution per mouse (thin line), 100 μM solution per mouse (dotted line) or absence (thick line) of the peptides is shown. The grey histogram represents immunostaining with human IgG1 as a control.
A possible mechanism of action could be the ability of TREM-1 derived peptide to interfere with TREM-1/TREM-1 ligand interaction. To address this question the Inventors performed competition experiments on TREM-1 ligand positive cells: PEC (Peritoneal Exudate Cells) from CLP treated mice.
Peritoneal exudate cells (PEC) from mice suffering from a caecal ligation and puncture (CLP)-induced peritonitis were subjected to flow cytometry analysis after incubation with a PE-conjugated anti-human IgG1 (Jackson Immunoresearch, Bar Harbor, USA). Competition with TREM-1 peptides was performed by pre-incubating cells with the indicated concentrations of peptides for 45 minutes on ice before adding mTREM-1-IgG1.

| Molecule | TNF-α and IL-1β production (release of inflammatory cytokines) in monocyte supernatant [2] | release of sTREM-1 from monocytes cultured with LPS [2] | inhibition of TREM-1 interaction with its ligand (mTREM-1/IgG1 binding to PEC) [5] | also measured |
| --- | --- | --- | --- | --- |
| TDSRCVIGLYHPPLQVY [P5sc, reference compound] | no action | no action | – | Serum IL-1β [1]: 841 ± 204 pg/mL; Serum TNF-α [1]: 105 ± 12 pg/mL; Serum sTREM-1 [1]: 52 ± 3 ng/mL |
| TTTRSLPKPTAVVSSPG [P3] | – | – | ineffective | time within which all treated mice died after LPS injection ([3]; 200 μl of 300 μM peptide i.p. 1 hour before LPS): ≤ 4 days; mice surviving after CLP [4]: 5% |
| VIYHPPNDPVVLFHPVRLVVTKG (listed as Mus musculus) [P2] | – | – | inhibit TREM-1 interaction with its ligand in a dose dependent manner | animals alive 7 days after LPS injection ([3]; 200 μl of 300 μM peptide i.p. 1 hour before 200 μg LPS i.p., 10 mice per group (FIG. 2, 3)): 50% |
| B1 | totally inhibited | totally inhibited | – | – |
